This experiment has as its system P388 leukemia ip, CD2F1 mice, survival T/C. In words: NCI In Vivo Anticancer Drug Screen. Data for tumor model P388 Leukemia (intraperitoneal) in CD2F1 (CDF1) mice. The settings on record: endpoint: median survival time, higher = longer survival. In a few lines:
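Mice carrying the transplanted tumor received test compound or vehicle. Survival was recorded in each group, and the value is the treated-group measurement divided by that of the vehicle-treated control group.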

Where [1] appears, read: dose: 12.5 mg/kg/injection, schedule: Q01DX005 (ip), vehicle: Klucel (hydroxypropylcellulose) (HPC).
Where [2] appears, read: dose: 50.0 mg/kg/injection, schedule: Q01DX005 (ip), vehicle: saline with Tween-80.
[3] abbreviates: dose: 100.0 mg/kg/injection, schedule: Q01DX005 (ip), vehicle: saline with Tween-80.
[4] abbreviates: dose: 200.0 mg/kg/injection, schedule: Q01DX005 (ip), vehicle: saline with Tween-80.
The mark [5] stands for this setting: dose: 6.25 mg/kg/injection, schedule: Q01DX005 (ip), vehicle: Klucel (hydroxypropylcellulose) (HPC).

We go through 20 molecules from PubChem BioAssay AID330 (DTP/NCI, 2004).

Values joined by “and” are separate entries in the source; they are usually repeats but may differ in a detail not shown here. Identical values can stand only once. Toxic doses and inconclusive results are not listed.

In the case of `CCOC(=O)c1cc2cc3c4c(c2oc1=O)CCCN4CCC3`, the T/C was 106 % of control under setting [1]; 110 % of control (dose: 25.0 mg/kg/injection, schedule: Q01DX005 (ip), vehicle: Klucel (hydroxypropylcellulose) (HPC)); 107 % of control and 111 % of control (dose: 50.0 mg/kg/injection, schedule: Q01DX005 (ip), vehicle: Klucel (hydroxypropylcellulose) (HPC)).

As to `COc1ccc(-n2c(C)nc3c(cnn3CN3CCCCC3)c2=O)cc1`, the T/C is, setting by setting: (dose: 60.0 mg/kg/injection, schedule: Q01DX005 (ip), vehicle: Klucel (hydroxypropylcellulose) (HPC)) 102 % of control; (dose: 120.0 mg/kg/injection, schedule: Q01DX005 (ip), vehicle: Klucel (hydroxypropylcellulose) (HPC)) 102 % of control; (dose: 240.0 mg/kg/injection, schedule: Q01DX005 (ip), vehicle: Klucel (hydroxypropylcellulose) (HPC)) 94 % of control.

For the molecule `CCOC(=O)C1=C(C)N(C)C(C)=C(C(=O)OCC)C1`, the T/C is, setting by setting: (dose: 60.0 mg/kg/injection, schedule: Q01DX005 (ip), vehicle: saline with Tween-80) 108 % of control; (dose: 120.0 mg/kg/injection, schedule: Q01DX005 (ip), vehicle: saline with Tween-80) 100 % of control; (dose: 240.0 mg/kg/injection, schedule: Q01DX005 (ip), vehicle: saline with Tween-80) 101 % of control.

`COC1OC2COC(c3ccccc3)OC2C(N)C1O` (configuration not stated): the T/C runs as follows: under setting [2], 106 % of control; under setting [3], 101 % of control; under setting [4], 104 % of control.

Turning to `NNc1ncnc2ccc(Cl)cc12`, the T/C is, setting by setting: (dose: 50.0 mg/kg/injection, schedule: Q01DX009 (ip), vehicle: Klucel (hydroxypropylcellulose) (HPC)) 111 % of control; (dose: 100.0 mg/kg/injection, schedule: Q01DX009 (ip), vehicle: Klucel (hydroxypropylcellulose) (HPC)) 111 % of control; (dose: 200.0 mg/kg/injection, schedule: Q01DX009 (ip), vehicle: Klucel (hydroxypropylcellulose) (HPC)) 113 % of control.

On to `C1CCN2CC3CCCN4CCCC(C2C1)C34` (configuration not stated), for which the T/C was 91 % of control and 100 % of control (dose: 6.2 mg/kg/injection, schedule: Q01DX007 (ip), vehicle: carboxymethylcellulose (CMC)); 91 % of control (dose: 12.5 mg/kg/injection, schedule: Q01DX007 (ip), vehicle: carboxymethylcellulose (CMC)); 91 % of control (dose: 25.0 mg/kg/injection, schedule: Q01DX007 (ip), vehicle: carboxymethylcellulose (CMC)).

Take `Cn1cnc([N+](=O)[O-])c1[Se]c1nc(N)nc2nc[nH]c12`: the T/C was 117 % of control (dose: 3.12 mg/kg/injection, schedule: Q01DX009 (ip), vehicle: dextrose); 104 % of control (dose: 3.12 mg/kg/injection, schedule: Q01DX009 (ip), vehicle: water); 112 % of control (dose: 6.25 mg/kg/injection, schedule: Q01DX009 (ip), vehicle: dextrose); 116 % of control (dose: 6.25 mg/kg/injection, schedule: Q01DX009 (ip), vehicle: water); 161 % of control (dose: 25.0 mg/kg/injection, schedule: Q01DX009 (ip), vehicle: dextrose); 106 % of control (dose: 25.0 mg/kg/injection, schedule: Q01DX009 (ip), vehicle: water). For the same molecule, the T/C by setting is: (dose: 50.0 mg/kg/injection, schedule: Q01DX009 (ip), vehicle: dextrose) 123 % of control; (dose: 50.0 mg/kg/injection, schedule: Q01DX009 (ip), vehicle: water) 116 % of control.

Consider `Oc1c(Cl)cc(Cl)cc1/C=N/c1nc(-c2ccc(Cl)cc2)cs1`, for which the T/C by setting is: (dose: 100.0 mg/kg/injection, schedule: Q01DX009 (ip), vehicle: saline with Tween-80) 88 % of control; (dose: 200.0 mg/kg/injection, schedule: Q01DX009 (ip), vehicle: saline with Tween-80) 104 % of control.

For `C=C[C@H](c1ccccc1O)c1cc(O)c(OC)cc1OC`, the T/C was 103 % of control (dose: 31.0 mg/kg/injection, schedule: Q01DX005 (ip), vehicle: Klucel (hydroxypropylcellulose) (HPC)); 103 % of control (dose: 62.0 mg/kg/injection, schedule: Q01DX005 (ip), vehicle: Klucel (hydroxypropylcellulose) (HPC)); 93 % of control (dose: 124.0 mg/kg/injection, schedule: Q01DX005 (ip), vehicle: Klucel (hydroxypropylcellulose) (HPC)); 94 % of control (dose: 248.0 mg/kg/injection, schedule: Q01DX005 (ip), vehicle: Klucel (hydroxypropylcellulose) (HPC)).

Regarding `Nc1ccn(C2CC(O)C(CO)O2)c(=O)n1` (configuration not stated), the T/C is, setting by setting: (dose: 4.6 mg/kg/injection, schedule: Q01DX009 (ip), vehicle: water) 95 % of control; (dose: 9.38 mg/kg/injection, schedule: Q01DX009 (ip), vehicle: water) 100 % of control; (dose: 18.75 mg/kg/injection, schedule: Q01DX009 (ip), vehicle: water) 105 % of control and 87 % of control; (dose: 37.5 mg/kg/injection, schedule: Q01DX009 (ip), vehicle: water) 112 % of control; (dose: 75.0 mg/kg/injection, schedule: Q01DX009 (ip), vehicle: water) 96 % of control; (dose: 150.0 mg/kg/injection, schedule: Q01DX009 (ip), vehicle: water) 103 % of control.

In the case of `Cc1cc(N=Nc2ccc(NC(=O)c3ccc(N)cc3)cc2C)ccc1N=Nc1ccc2c(O)c(N=Nc3ccc(S(=O)(=O)O)cc3)c(S(=O)(=O)O)cc2c1`, the T/C is, setting by setting: (dose: 12.5 mg/kg/injection, schedule: Q01DX005 (ip), vehicle: saline) 100 % of control; (dose: 25.0 mg/kg/injection, schedule: Q01DX005 (ip), vehicle: saline) 105 % of control; (dose: 50.0 mg/kg/injection, schedule: Q01DX005 (ip), vehicle: saline) 105 % of control and 108 % of control; (dose: 100.0 mg/kg/injection, schedule: Q01DX005 (ip), vehicle: saline) 103 % of control.

On to `Clc1ccc(CN2COc3c(ccc4ccccc34)C2)cc1`, for which the T/C is, setting by setting: (dose: 100.0 mg/kg/injection, schedule: Q04DX003 (ip), vehicle: Klucel (hydroxypropylcellulose) (HPC)) 103 % of control; (dose: 200.0 mg/kg/injection, schedule: Q04DX003 (ip), vehicle: Klucel (hydroxypropylcellulose) (HPC)) 94 % of control; (dose: 400.0 mg/kg/injection, schedule: Q04DX003 (ip), vehicle: Klucel (hydroxypropylcellulose) (HPC)) 94 % of control.

With `O=C(O)c1cccc(C(=O)O)c1Sc1ccc(Cl)cc1`, the T/C by setting is: (dose: 100.0 mg/kg/injection, schedule: Q04DX002 (ip), vehicle: saline with Tween-80) 100 % of control; (dose: 200.0 mg/kg/injection, schedule: Q04DX002 (ip), vehicle: saline with Tween-80) 105 % of control; (dose: 400.0 mg/kg/injection, schedule: Q04DX002 (ip), vehicle: saline with Tween-80) 100 % of control.

In the case of `CC[OH+]CC[OH+]CC[OH+]C1CCCC2CCC[N-]C21.[Cl][Cu][Cl]` (configuration not stated), the T/C was 97 % of control under setting [5] and 92 % of control under setting [1].

Turning to `[O]=[Nb]`, the T/C was 100 % of control (dose: 2.5 mg/kg/injection, schedule: Q01DX009 (ip), vehicle: saline with Tween-80) and 100 % of control (dose: 5.0 mg/kg/injection, schedule: Q01DX009 (ip), vehicle: saline with Tween-80).

With `COc1ccc2c(C(=O)c3ccccc3)c3[n+](cc2c1OC)CCc1cc2c(cc1-3)OCO2`, the T/C is, setting by setting: under setting [5], 103 % of control; under setting [1], 103 % of control.

On to `[Cu].c1ccc2c3[n-]c(c2c1)/N=c1\[n-]/c(c2ccccc12)=N\c1[n-]c(c2ccccc12)/N=c1\[n-]/c(c2ccccc12)=N\3`, for which the T/C reads like this: (dose: 50.0 mg/kg/injection, schedule: Q01DX009 (ip), vehicle: saline) 104 % of control; (dose: 100.0 mg/kg/injection, schedule: Q01DX009 (ip), vehicle: saline) 93 % of control.

On to `NC(=O)c1cnc2nc1NCCCCCCC2`, for which the T/C (dose: 100.0 mg/kg/injection, schedule: Q04DX002 (ip), vehicle: Klucel (hydroxypropylcellulose) (HPC)) was 100 % of control; the T/C (dose: 200.0 mg/kg/injection, schedule: Q04DX002 (ip), vehicle: Klucel (hydroxypropylcellulose) (HPC)) is 98 % of control; the T/C (dose: 400.0 mg/kg/injection, schedule: Q04DX002 (ip), vehicle: Klucel (hydroxypropylcellulose) (HPC)) is 90 % of control.

As for `CCN(CC)CCOC(=O)C(C1CCCCC1)C1(O)CCCCCC1` (configuration not stated), the T/C under setting [2] is 104 % of control, the T/C under setting [3] was 102 % of control and the T/C under setting [4] is 95 % of control.

As to `CCN(C(=S)NNC(=S)N/N=C(\C)c1ccccn1)c1ccccc1`, the T/C (dose: 6.25 mg/kg/injection, schedule: Q01DX005 (ip), vehicle: saline with Tween-80) was 94 % of control; the T/C (dose: 12.5 mg/kg/injection, schedule: Q01DX005 (ip), vehicle: saline with Tween-80) was 107 % of control; the T/C (dose: 25.0 mg/kg/injection, schedule: Q01DX005 (ip), vehicle: saline with Tween-80) is 109 % of control; the T/C under setting [2] was 112 % of control; the T/C under setting [3] was 120 % of control.
